# Laboratory results from US20200032271A1, “COMBINATION THERAPY WITH LIPOSOMAL ANTISENSE OLIGONUCLEOTIDES” (Bio-Path Holdings, Inc., priority 2016, published 2020).
# Where two headings read alike, the source gives them in different places. [PEt] = P-ethoxy (ethyl phosphotriester) internucleoside linkage
# Legend:
# BV173 cells [1] = test: Cell cycle analysis (7-AAD flow cytometry); type: cell-based, human
# Protocol: Cells were then fixed and permeabilized for 1 h at 4° C. with 1×Fixation/Permeabilization buffer (Ebioscience, San Diego, Calif., USA). After permeabilization, cells were washed and incubated with 7-aminoactinomycin D (7-AAD, Biolegend, San Diego, Calif., USA) in the dark at 4° C. for about 30 min. Flow cytometric data acquisition was acquired using BD FACSDiva™ software (BD Biosciences, San Jose, Calif., USA). The flow cytometer was set to collect 20,000 events. Relative percentages in the different cell cycle phases (sub-G1, G1, S, G2/M) were reported.
# […] Three days later, cells were harvested and processed for flow cytometry.
# BV173 cells [2] = system: BV173 cells
# Protocol: (§1) BV173 and K562 cells were seeded at 5 and 15×10^3 cells/well, respectively, in 96-well plates in 0.1 mL of medium. Cells were incubated with BP1001 and/or tyrosine kinase inhibitors for 4 days. The viability of untreated and treated leukemia cells was measured by the CellTiter-Glo® Luminescent Cell Viability Assay (Promega, Madison, Wis., USA). The CellTiter-Glo® Luminescent Cell Viability Assay determines the number of viable cells by quantitating the presence of ATP, an indicator of metabolically active cells.
# [3] = Plasma pharmacokinetics of Grb2 antisense oligo in patients; conditions: plasma
# Protocol: Pharmacokinetic (PK) analysis was performed on plasma samples collected from refractory/relapsed patients diagnosed with AML receiving BP1001 (60 mg/m^2)+LDAC or receiving BP1001 (90 mg/m^2)+LDAC.
# Blood samples for measurement of Grb2 antisense oligo concentrations were collected from patients in cohorts 7 and 8, at predose, 1, 2, 4, 6, 8, 24, 72 h post start-of-infusion (SOI). Urine samples for measurement of BP1001 concentrations were also collected from patients in cohorts 7 and 8, at start of dose-4 h, 4-8 h postdose, and 8-24 h postdose. PK blood samples were processed to plasma and analyzed using a validated method (Charles River Laboratories, Montreal, Canada) with a lower limit of quantitation (LLOQ; 0.5 ng/mL). Urine samples were analyzed using a validated method (Charles River Laboratories, Montreal, Canada) with a LLOQ of 1.00 ng/mL.
# PK parameters were estimated using Phoenix pharmacokinetic software (Certara). A non-compartmental approach consistent with the IV infusion route of administration was used for parameter estimation, using an estimated infusion time of 2.5 h. All parameters were generated from Grb2 antisense oligo individual concentrations in plasma from Day 1 of Cycle 1, whenever practical. […] Parameters were estimated using nominal sampling times relative to the start of infusion. The area under the concentration vs. time curve (AUC) was calculated using the linear trapezoidal method with linear interpolation. The slope of the terminal elimination phase was determined using log linear regression on the unweighted concentration data.
# [4] = tyrosine kinase inhibitor alone or after BP1001 pretreatment (FIG. 9A)
# [5] = tyrosine kinase inhibitor alone or followed by BP1001 (FIG. 9B)
# [6] = BP1001 (120 μg/mL in the combination) 1 h before 1 nM dasatinib, four days
# [7] = BP1001 (120 μg/mL in the combination) 1 day before dasatinib
# [8] = dasatinib 1 day, then BP1001 (120 μg/mL in the combination), read 3 days later
# Protocol for K562 cells: as §1
compound,measurement,setting,value
Cc1ccc(C(=O)Nc2ccc(CN3CCN(C)CC3)c(C(F)(F)F)c2)cc1C#Cc1cnc2cccnn12 [ponatinib],percentage of cells in sub-G1 phase,BV173 cells [1]; [4],34.0%
same,percentage of cells in sub-G1 phase,BV173 cells [1]; [5],71.1%
Cc1cn(-c2cc(NC(=O)c3ccc(C)c(Nc4nccc(-c5cccnc5)n4)c3)cc(C(F)(F)F)c2)cn1 [nilotinib],percentage of cells in sub-G1 phase,BV173 cells [1]; [4],26.4%
same,percentage of cells in sub-G1 phase,BV173 cells [1]; [5],65.0%
COc1cc(Nc2c(C#N)cnc3cc(OCCCN4CCN(C)CC4)c(OC)cc23)c(Cl)cc1Cl [bosutinib],percentage of cells in sub-G1 phase,BV173 cells [1]; [4],34.3%
same,percentage of cells in sub-G1 phase,BV173 cells [1]; [5],66.1%
Cc1nc(Nc2ncc(C(=O)Nc3c(C)cccc3Cl)s2)cc(N2CCN(CCO)CC2)n1 [dasatinib],decrease of viability,BV173 cells [2]; [6],40%
same,decrease of viability,BV173 cells [2]; [7],10%
same,decrease of viability,BV173 cells [2]; [8],6%
same,percentage of cells in sub-G1 phase,"BV173 cells [1]; BP1001 1 day before dasatinib, harvested three days later (FIGS. 8A-D)",10.6%
same,percentage of cells in sub-G1 phase,BV173 cells [1]; [4],30.7%
same,percentage of cells in sub-G1 phase,BV173 cells [1]; [5],64.1%
same,decrease of viability,K562 cells; [6],25%
same,decrease of viability,K562 cells; [7],25%
same,decrease of viability,K562 cells; [8],12%
"5′-ATATTTGGCGATGGCTTC-3′ (DNA, all [PEt], methylation of C not given here) [Grb2 antisense oligo]",Tmax,[3]; 60 mg/m^2 cohort,1 h
same,Tmax,[3]; 90 mg/m^2 cohort,1 h
same,decrease of Vz for the dose increase from 60 to 90 mg/m^2,[3],approximately 1.5 fold
same,increase of CL for the dose increase from 60 to 90 mg/m^2,[3],approximately 1.5 fold
